Measurements as given in patent US10538554B2, “Peptides and uses therefor as antiviral agents” (priority 2015, dated 2020).
Bridge positions count the residues as written; N and C are the ends. Square brackets hold non-standard residues; d marks the D form. Peptide text beside a SMILES is read from it.

Tested on: H1N1 A1/Malaysia/302/1954
Conditions: A1/Malaysia/302/1954, 48 h, 1 μM

Structure (SMILES)	% Inhibition [%]
CC[C@@H](C)[C@H]1NC(=O)[C@@H](CC(=O)O)NC(=O)[C@@H]([C@H](C)O)NC(=O)[C@@H](Cc2ccccc2)NC(=O)[C@@H](Cc2c[nH]c3ccccc23)NC(=O)[C@@H](Cc2c[nH]c3ccccc23)NC(=O)[C@H](NC(=O)[C@H](CCCCN)NC(=O)[C@H](CCCCN)NC(=O)[C@H](CCCNC(=N)N)NC(=O)[C@@H](N)CCCNC(=N)N)CSSC[C@H](C(=O)O)NC(=O)[C@@H](C)NC1=O [PSP VII A3, H-RRKKcwwftdiac-OH] (H-RRKK[dC][dW][dW][dF][dT][dD][dI][dA][dC]-OH; disulfide 5-13)	9.5
CC[C@@H](C)[C@H]1NC(=O)CNC(=O)[C@@H]([C@H](C)O)NC(=O)[C@@H](Cc2ccccc2)NC(=O)[C@@H](Cc2c[nH]c3ccccc23)NC(=O)[C@@H](Cc2c[nH]c3ccccc23)NC(=O)[C@H](NC(=O)[C@H](CCCCN)NC(=O)[C@H](CCCCN)NC(=O)[C@H](CCCNC(=N)N)NC(=O)[C@@H](N)CCCNC(=N)N)CSSC[C@H](C(=O)O)NC(=O)[C@@H](C)NC1=O [PSP VII A5, H-RRKKcwwftGiac-OH] (H-RRKK[dC][dW][dW][dF][dT]G[dI][dA][dC]-OH; disulfide 5-13)	9.5
CC[C@@H](C)[C@H]1NC(=O)[C@@H](CCCNC(=N)N)NC(=O)[C@@H]([C@H](C)O)NC(=O)[C@@H](Cc2ccccc2)NC(=O)[C@@H](Cc2c[nH]c3ccccc23)NC(=O)[C@@H](Cc2c[nH]c3ccccc23)NC(=O)[C@H](NC(=O)[C@H](CCCCN)NC(=O)[C@H](CCCCN)NC(=O)[C@H](CCCNC(=N)N)NC(=O)[C@@H](N)CCCNC(=N)N)CSSC[C@H](C(=O)O)NC(=O)[C@@H](C)NC1=O [PSP VII A15, H-RRKKcwwftriac-OH] (H-RRKK[dC][dW][dW][dF][dT][dR][dI][dA][dC]-OH; disulfide 5-13)	39.1
CC[C@@H](C)[C@H]1NC(=O)[C@@H](C)NC(=O)[C@@H]([C@H](C)O)NC(=O)[C@@H](Cc2ccccc2)NC(=O)[C@@H](Cc2c[nH]c3ccccc23)NC(=O)[C@@H](Cc2c[nH]c3ccccc23)NC(=O)[C@H](NC(=O)[C@H](CCCCN)NC(=O)[C@H](CCCCN)NC(=O)[C@H](CCCNC(=N)N)NC(=O)[C@@H](N)CCCNC(=N)N)CSSC[C@H](C(=O)O)NC(=O)[C@@H](C)NC1=O [PSP VII A1, H-RRKKcwwftaiac-OH] (H-RRKK[dC][dW][dW][dF][dT][dA][dI][dA][dC]-OH; disulfide 5-13)	25.2
CC[C@@H](C)[C@H]1NC(=O)[C@@H](CCC(=O)O)NC(=O)[C@@H]([C@H](C)O)NC(=O)[C@@H](Cc2ccccc2)NC(=O)[C@@H](Cc2c[nH]c3ccccc23)NC(=O)[C@@H](Cc2c[nH]c3ccccc23)NC(=O)[C@H](NC(=O)[C@H](CCCCN)NC(=O)[C@H](CCCCN)NC(=O)[C@H](CCCNC(=N)N)NC(=O)[C@@H](N)CCCNC(=N)N)CSSC[C@H](C(=O)O)NC(=O)[C@@H](C)NC1=O [PSP VII A4, H-RRKKcwwfteiac-OH] (H-RRKK[dC][dW][dW][dF][dT][dE][dI][dA][dC]-OH; disulfide 5-13)	3.8
CC[C@@H](C)[C@H]1NC(=O)[C@@H]([C@H](C)O)NC(=O)[C@@H](Cc2ccccc2)NC(=O)[C@@H](Cc2c[nH]c3ccccc23)NC(=O)[C@@H](Cc2c[nH]c3ccccc23)NC(=O)[C@H](NC(=O)[C@H](CCCCN)NC(=O)[C@H](CCCCN)NC(=O)[C@H](CCCNC(=N)N)NC(=O)[C@@H](N)CCCNC(=N)N)CSSC[C@H](C(=O)O)NC(=O)[C@@H](C)NC(=O)[C@@H]([C@H](C)CC)NC1=O [PSP VII A8, H-RRKKcwwftiiac-OH] (H-RRKK[dC][dW][dW][dF][dT][dI][dI][dA][dC]-OH; disulfide 5-13)	84.8
CC[C@@H](C)[C@H]1NC(=O)[C@H]2CCCN2C(=O)[C@@H]([C@H](C)O)NC(=O)[C@@H](Cc2ccccc2)NC(=O)[C@@H](Cc2c[nH]c3ccccc23)NC(=O)[C@@H](Cc2c[nH]c3ccccc23)NC(=O)[C@H](NC(=O)[C@H](CCCCN)NC(=O)[C@H](CCCCN)NC(=O)[C@H](CCCNC(=N)N)NC(=O)[C@@H](N)CCCNC(=N)N)CSSC[C@H](C(=O)O)NC(=O)[C@@H](C)NC1=O [PSP VII A13, H-RRKKcwwftpiac-OH] (H-RRKK[dC][dW][dW][dF][dT][dP][dI][dA][dC]-OH; disulfide 5-13)	41.9
CC[C@@H](C)[C@H]1NC(=O)[C@@H](CC(C)C)NC(=O)[C@@H]([C@H](C)O)NC(=O)[C@@H](Cc2ccccc2)NC(=O)[C@@H](Cc2c[nH]c3ccccc23)NC(=O)[C@@H](Cc2c[nH]c3ccccc23)NC(=O)[C@H](NC(=O)[C@H](CCCCN)NC(=O)[C@H](CCCCN)NC(=O)[C@H](CCCNC(=N)N)NC(=O)[C@@H](N)CCCNC(=N)N)CSSC[C@H](C(=O)O)NC(=O)[C@@H](C)NC1=O [PSP VII A10, H-RRKKcwwftliac-OH] (H-RRKK[dC][dW][dW][dF][dT][dL][dI][dA][dC]-OH; disulfide 5-13)	35.7
CC[C@@H](C)[C@H]1NC(=O)[C@@H](CC(N)=O)NC(=O)[C@@H]([C@H](C)O)NC(=O)[C@@H](Cc2ccccc2)NC(=O)[C@@H](Cc2c[nH]c3ccccc23)NC(=O)[C@@H](Cc2c[nH]c3ccccc23)NC(=O)[C@H](NC(=O)[C@H](CCCCN)NC(=O)[C@H](CCCCN)NC(=O)[C@H](CCCNC(=N)N)NC(=O)[C@@H](N)CCCNC(=N)N)CSSC[C@H](C(=O)O)NC(=O)[C@@H](C)NC1=O [PSP VII A12, H-RRKKcwwftniac-OH] (H-RRKK[dC][dW][dW][dF][dT][dN][dI][dA][dC]-OH; disulfide 5-13)	55.2
CC[C@@H](C)[C@H]1NC(=O)[C@@H](CS)NC(=O)[C@@H]([C@H](C)O)NC(=O)[C@@H](Cc2ccccc2)NC(=O)[C@@H](Cc2c[nH]c3ccccc23)NC(=O)[C@@H](Cc2c[nH]c3ccccc23)NC(=O)[C@H](NC(=O)[C@H](CCCCN)NC(=O)[C@H](CCCCN)NC(=O)[C@H](CCCNC(=N)N)NC(=O)[C@@H](N)CCCNC(=N)N)CSSC[C@H](C(=O)O)NC(=O)[C@@H](C)NC1=O [PSP VII A2, H-RRKKcwwftciac-OH] (H-RRKK[dC][dW][dW][dF][dT][dC][dI][dA][dC]-OH; disulfide 5-13)	11.9
CC[C@@H](C)[C@H]1NC(=O)[C@@H](CCCCN)NC(=O)[C@@H]([C@H](C)O)NC(=O)[C@@H](Cc2ccccc2)NC(=O)[C@@H](Cc2c[nH]c3ccccc23)NC(=O)[C@@H](Cc2c[nH]c3ccccc23)NC(=O)[C@H](NC(=O)[C@H](CCCCN)NC(=O)[C@H](CCCCN)NC(=O)[C@H](CCCNC(=N)N)NC(=O)[C@@H](N)CCCNC(=N)N)CSSC[C@H](C(=O)O)NC(=O)[C@@H](C)NC1=O [PSP VII A9, H-RRKKcwwftkiac-OH] (H-RRKK[dC][dW][dW][dF][dT][dK][dI][dA][dC]-OH; disulfide 5-13)	17.4
CC[C@@H](C)[C@H]1NC(=O)[C@@H](CCC(N)=O)NC(=O)[C@@H]([C@H](C)O)NC(=O)[C@@H](Cc2ccccc2)NC(=O)[C@@H](Cc2c[nH]c3ccccc23)NC(=O)[C@@H](Cc2c[nH]c3ccccc23)NC(=O)[C@H](NC(=O)[C@H](CCCCN)NC(=O)[C@H](CCCCN)NC(=O)[C@H](CCCNC(=N)N)NC(=O)[C@@H](N)CCCNC(=N)N)CSSC[C@H](C(=O)O)NC(=O)[C@@H](C)NC1=O [PSP VII A14, H-RRKKcwwftqiac-OH] (H-RRKK[dC][dW][dW][dF][dT][dQ][dI][dA][dC]-OH; disulfide 5-13)	21.9
